The series has as its system CCRIS mutagenicity, Ames/micronucleus/aberration tests. The experiment in a line: CCRIS mutagenicity studies.
Setting [1] is: Test System: AMES SALMONELLA TYPHIMURIUM, Strain/Indicator: TA98, Metabolic Activation: NONE, Method: PREINCUBATION
Setting [2] is: Test System: AMES SALMONELLA TYPHIMURIUM, Strain/Indicator: TA98, Metabolic Activation: RAT, LIVER, S-9, AROCLOR 1254, Method: STANDARD PLATE.
Setting [3] is: Test System: AMES SALMONELLA TYPHIMURIUM, Strain/Indicator: TA100, Metabolic Activation: NONE, Method: PREINCUBATION
[4] abbreviates: Test System: AMES SALMONELLA TYPHIMURIUM, Strain/Indicator: TA100, Metabolic Activation: RAT, LIVER, S-9, AROCLOR 1254, Method: PREINCUBATION
The mark [5] stands for this setting: Test System: AMES SALMONELLA TYPHIMURIUM, Strain/Indicator: TA100, Metabolic Activation: RAT, LIVER, S-9, AROCLOR 1254, Method: STANDARD PLATE.

Active and inactive are the calls of the source. No rule for the calls is given here.

As for `O=[N+]([O-])c1cc(O)c2ccc3cccc4ccc1c2c34`, the mutagenic call (Test System: AMES SALMONELLA TYPHIMURIUM, Strain/Indicator: TA98(1,8-DNP6), Metabolic Activation: NONE, Method: PREINCUBATION) is “active; positive”; the mutagenic call (Test System: AMES SALMONELLA TYPHIMURIUM, Strain/Indicator: TA98(1,8-DNP6), Metabolic Activation: NONE, Method: STANDARD PLATE) is “active; positive”; the mutagenic call (Test System: AMES SALMONELLA TYPHIMURIUM, Strain/Indicator: TA98(1,8-DNP6), Metabolic Activation: RAT, LIVER, S-9, AROCLOR 1254, Method: STANDARD PLATE) was “active; positive”; the mutagenic call (Test System: AMES SALMONELLA TYPHIMURIUM, Strain/Indicator: TA98(NR), Metabolic Activation: NONE, Method: PREINCUBATION) was “active; positive”; the mutagenic call (Test System: AMES SALMONELLA TYPHIMURIUM, Strain/Indicator: TA98(NR), Metabolic Activation: NONE, Method: STANDARD PLATE) is “active; positive”; the mutagenic call (Test System: AMES SALMONELLA TYPHIMURIUM, Strain/Indicator: TA98(NR), Metabolic Activation: RAT, LIVER, S-9, AROCLOR 1254, Method: STANDARD PLATE) is “active; positive”. Also, the mutagenic call reads like this: under setting [1], “active; positive”; (Test System: AMES SALMONELLA TYPHIMURIUM, Strain/Indicator: TA98, Metabolic Activation: RAT, LIVER, S-9, AROCLOR 1254, Method: PREINCUBATION) “active; positive”; under setting [2], “active; positive”; under setting [3], “active; positive”; under setting [4], “active; positive”; (Test System: AMES SALMONELLA TYPHIMURIUM, Strain/Indicator: YG1024, Metabolic Activation: NONE, Method: STANDARD PLATE) “active; positive”. Also, the mutagenic call reads like this: (Test System: AMES SALMONELLA TYPHIMURIUM, Strain/Indicator: YG1024, Metabolic Activation: RAT, LIVER, S-9, AROCLOR 1254, Method: STANDARD PLATE) “active; positive”; (Test System: CHINESE HAMSTER OVARY, Strain/Indicator: CHO (HGPRT)/6-THIOGUANINE, Metabolic Activation: NONE, Method: STANDARD PLATE) “inactive; negative”; (Test System: CHINESE HAMSTER OVARY, Strain/Indicator: CHO (HGPRT)/6-THIOGUANINE, Metabolic Activation: RAT, LIVER, S-9, AROCLOR 1254, Method: STANDARD PLATE) “active; positive”; (Test System: UDS RODENT HEPATOCYTES, Strain/Indicator: THY INCORP, Metabolic Activation: NONE, Method: AUTORADIOGRAPHY) “inactive; negative”.

For the compound `Nc1cc(C(F)(F)F)ccc1Cl`, the mutagenic call is “inactive; negative” (Test System: AMES SALMONELLA TYPHIMURIUM, Strain/Indicator: TA98, Metabolic Activation: NONE, Method: STANDARD PLATE); “inactive; negative” under setting [2]; “inactive; negative” (Test System: AMES SALMONELLA TYPHIMURIUM, Strain/Indicator: TA100, Metabolic Activation: NONE, Method: STANDARD PLATE); “inactive; negative” under setting [5]; “inactive; negative” (Test System: AMES SALMONELLA TYPHIMURIUM, Strain/Indicator: TA1535, Metabolic Activation: NONE, Method: STANDARD PLATE); “inactive; negative” (Test System: AMES SALMONELLA TYPHIMURIUM, Strain/Indicator: TA1535, Metabolic Activation: RAT, LIVER, S-9, AROCLOR 1254, Method: STANDARD PLATE). In addition, the mutagenic call is “inactive; negative” (Test System: AMES SALMONELLA TYPHIMURIUM, Strain/Indicator: TA1537, Metabolic Activation: NONE, Method: STANDARD PLATE); “inactive; negative” (Test System: AMES SALMONELLA TYPHIMURIUM, Strain/Indicator: TA1537, Metabolic Activation: RAT, LIVER, S-9, AROCLOR 1254, Method: STANDARD PLATE); “inactive; negative” (Test System: AMES SALMONELLA TYPHIMURIUM, Strain/Indicator: TA1538, Metabolic Activation: NONE, Method: STANDARD PLATE); “inactive; negative” (Test System: AMES SALMONELLA TYPHIMURIUM, Strain/Indicator: TA1538, Metabolic Activation: RAT, LIVER, S-9, AROCLOR 1254, Method: STANDARD PLATE).

As to `O[C@H]1C=Cc2c(ccc3cc4c5c(ccc4cc23)[C@H](O)[C@@H](O)C=C5)[C@@H]1O`, the mutagenic call under setting [5] was “inactive; negative”.

For `O=C(OCc1cccc([N+](=O)[O-])c1)c1ccccc1`, the mutagenic call is, setting by setting: under setting [1], “inactive; negative”; under setting [3], “inactive; negative”; under setting [4], “inactive; negative”.

`NC(=O)N(CCCO)N=O`: the mutagenic call is “active; positive” (Test System: E. COLI B, Strain/Indicator: H/R30R, Metabolic Activation: NONE) and “active; positive” (Test System: E. COLI B, Strain/Indicator: HS30R, Metabolic Activation: NONE).

These data come from PubChem BioAssay AID1259407 (Chemical Carcinogenesis Research Information System (CCRIS), 2018).
